Experimental findings from patent US20230065368A1, “INHIBITING UBIQUITIN SPECIFIC PEPTIDASE 9X” (FORMA Therapeutics, Inc., priority 2018, published 2023) are described below.

In the test the target is USP9X (Homo sapiens, UniProt Q93008). Description: Biochemical Assay for USP9X Inhibition (Ub-Rh110 fluorescence). Conditions: Biochemical Assay of Example 1, 25 nM Ub-Rh110, 30 min preincubation, Table 23 additional compounds. On the procedure: Biochemical Assay for USP9X Inhibition
Concentration and incubation times were optimized for the maximal signal-to-background while maintaining initial velocity conditions at a fixed substrate concentration (<<Km). […] To assay plates (pre-stamped with compound) was added 3 μL 2× Enzyme. The enzyme was preincubated for 30 minutes and then treated with 3 μL of 2× Substrate. […] The slope (best fit linear regression) of the five reads was used to normalize for inhibition. For all assays, data are reported as percent inhibition compared with control wells based on the following equation: […], wherein FLU is measured Fluorescence, AveLow is average Fluorescence of no enzyme control (n=64), and AveHigh is average Fluorescence of DMSO control (n=64). IC50 values are determined by curve fitting of the standard 4 parameter logistic fitting algorithm included in the Activity Base software package: IDBS XE Designer Model205. Data are fitted using the Levenburg Marquardt algorithm.

Chain of USP9X (Q93008 whole entry, species assumed): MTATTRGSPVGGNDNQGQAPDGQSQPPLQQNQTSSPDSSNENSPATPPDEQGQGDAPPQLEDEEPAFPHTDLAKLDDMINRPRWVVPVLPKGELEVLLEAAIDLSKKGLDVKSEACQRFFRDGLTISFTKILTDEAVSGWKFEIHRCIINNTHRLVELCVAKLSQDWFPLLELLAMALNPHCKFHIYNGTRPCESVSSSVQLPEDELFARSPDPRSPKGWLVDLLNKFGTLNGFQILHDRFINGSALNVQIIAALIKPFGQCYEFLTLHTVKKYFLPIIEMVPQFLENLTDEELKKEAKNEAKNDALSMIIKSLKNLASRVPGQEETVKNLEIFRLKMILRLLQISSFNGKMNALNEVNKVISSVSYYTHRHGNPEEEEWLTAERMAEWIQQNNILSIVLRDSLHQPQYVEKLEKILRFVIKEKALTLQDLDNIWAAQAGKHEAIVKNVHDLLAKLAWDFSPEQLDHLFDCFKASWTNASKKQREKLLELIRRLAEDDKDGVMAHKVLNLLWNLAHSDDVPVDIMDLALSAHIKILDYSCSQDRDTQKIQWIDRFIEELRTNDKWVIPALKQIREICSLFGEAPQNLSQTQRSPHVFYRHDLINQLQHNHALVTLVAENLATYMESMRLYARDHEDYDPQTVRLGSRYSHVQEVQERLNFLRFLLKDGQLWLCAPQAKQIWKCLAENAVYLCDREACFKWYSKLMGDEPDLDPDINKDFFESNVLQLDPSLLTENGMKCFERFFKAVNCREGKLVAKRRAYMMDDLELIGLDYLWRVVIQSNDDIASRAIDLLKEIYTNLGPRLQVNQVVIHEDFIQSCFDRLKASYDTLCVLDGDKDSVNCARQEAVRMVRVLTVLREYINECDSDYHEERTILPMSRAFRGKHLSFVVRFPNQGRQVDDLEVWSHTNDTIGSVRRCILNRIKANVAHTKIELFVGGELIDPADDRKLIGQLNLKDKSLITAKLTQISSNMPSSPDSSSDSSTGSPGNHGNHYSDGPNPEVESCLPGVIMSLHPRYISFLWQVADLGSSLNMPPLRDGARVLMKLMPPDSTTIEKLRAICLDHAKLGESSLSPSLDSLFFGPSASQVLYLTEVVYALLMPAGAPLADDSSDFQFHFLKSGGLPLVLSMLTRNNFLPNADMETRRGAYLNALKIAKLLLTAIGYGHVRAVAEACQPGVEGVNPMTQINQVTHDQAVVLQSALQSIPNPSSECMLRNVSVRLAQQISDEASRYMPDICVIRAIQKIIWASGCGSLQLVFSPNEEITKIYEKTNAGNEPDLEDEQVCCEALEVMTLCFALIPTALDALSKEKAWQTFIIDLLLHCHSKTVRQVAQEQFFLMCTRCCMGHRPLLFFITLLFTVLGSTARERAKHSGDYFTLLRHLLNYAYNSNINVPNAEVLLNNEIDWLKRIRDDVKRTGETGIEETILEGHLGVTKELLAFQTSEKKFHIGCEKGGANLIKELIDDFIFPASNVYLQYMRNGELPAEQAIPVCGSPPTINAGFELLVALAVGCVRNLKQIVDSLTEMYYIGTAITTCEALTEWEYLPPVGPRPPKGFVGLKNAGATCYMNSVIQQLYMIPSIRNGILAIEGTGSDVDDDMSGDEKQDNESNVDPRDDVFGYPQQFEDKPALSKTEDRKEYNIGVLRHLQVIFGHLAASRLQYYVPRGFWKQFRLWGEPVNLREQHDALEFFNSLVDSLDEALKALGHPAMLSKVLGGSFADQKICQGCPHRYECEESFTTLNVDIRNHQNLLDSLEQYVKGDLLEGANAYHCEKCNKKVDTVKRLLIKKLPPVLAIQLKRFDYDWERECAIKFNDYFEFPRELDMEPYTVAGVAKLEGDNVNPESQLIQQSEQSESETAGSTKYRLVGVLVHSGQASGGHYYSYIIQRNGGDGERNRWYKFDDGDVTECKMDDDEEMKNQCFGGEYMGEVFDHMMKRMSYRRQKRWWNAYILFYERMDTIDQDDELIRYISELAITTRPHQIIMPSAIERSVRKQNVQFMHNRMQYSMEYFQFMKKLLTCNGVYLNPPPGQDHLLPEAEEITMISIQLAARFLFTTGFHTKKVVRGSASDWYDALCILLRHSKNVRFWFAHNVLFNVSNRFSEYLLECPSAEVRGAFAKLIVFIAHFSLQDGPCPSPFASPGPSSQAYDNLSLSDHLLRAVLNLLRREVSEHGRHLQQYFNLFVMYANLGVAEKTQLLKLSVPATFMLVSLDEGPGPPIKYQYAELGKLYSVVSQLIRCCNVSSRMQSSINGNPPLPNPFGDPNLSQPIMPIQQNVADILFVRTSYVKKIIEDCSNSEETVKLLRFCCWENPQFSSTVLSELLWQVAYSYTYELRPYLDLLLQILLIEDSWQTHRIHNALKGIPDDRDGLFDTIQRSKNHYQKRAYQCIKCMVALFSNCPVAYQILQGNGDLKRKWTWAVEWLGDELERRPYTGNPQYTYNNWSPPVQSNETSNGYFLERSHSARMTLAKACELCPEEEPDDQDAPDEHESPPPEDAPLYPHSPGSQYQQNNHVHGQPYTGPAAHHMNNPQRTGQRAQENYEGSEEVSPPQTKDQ

As for `O=C([C@@H](CO)c1ccccc1)N1CC2=C(C1)CN(S(=O)(=O)c1cnc3c(c1)OCCO3)C2` [Example C-7], the IC50 (commonly the concentration needed to halve the response being measured) fell in the range of 0.2 to 2 µM.

`O=C([C@H](CO)c1ccccc1)N1CC2=C(C1)CN(S(=O)(=O)c1cnc3c(c1)OCCO3)C2` [Example C-8]: the concentration for half-maximal inhibition (IC50) was in the range of 2 to 25 µM.
